Source: patent US20220064138A1, “MACROLIDE BREFELDIN A ESTER DERIVATIVES AND USE THEREOF” (OCEAN UNIVERSITY OF CHINA, priority 2019, published 2022)
pIC50: −log10 of the molar value.

Assays:
Experiment in all cases: Cell proliferation assay (CCK-8)
Type in all cases: cell-based
[1] = test system: human leukemia K562 cells; conditions: K562, 72 h
Source text: (§1) CCK-8 method: The CCK-8 method is a highly sensitive, non-radioactive colorimetric assay for the determination of the number of viable cells in cell proliferation or cytotoxicity assays. The orange formazan dye produced by the bioreduction of CCK-8 by intracellular dehydrogenase is soluble in the cell culture medium, and the amount of formazan dye produced is proportional to the number of living cells. The kit used in this method is the tetrazolium salt-WST-8 (2-(2-methoxy-4-nitrophenyl)-3-(4-nitrophenyl)-5-(2,4-disulfophenyl)-2H-tetrazolium monosodium salt) developed by Dojindo Chemical Research Institute (Dojindo), which is capable of being reduced to a water-soluble formazan dye in the presence of the electronic carrier 1-Methoxy PMS.
(§2) Human cervical cancer Hela cells, pancreatic cancer PANC-1 cells, esophageal cancer Eca-109 cells, human leukemia K562 cells, human lung cancer A549 cells, human liver cancer HepG2 cells, human gastric cancer MKN-45 cells, human breast cancer MCF7 cells were cultured in DMEM medium containing 10% FBS (fetal bovine serum), 100 U/mL penicillin and 100 μg/ml streptomycin. Hepatocellular carcinoma cells Bel-7402 were cultured in RPMI-1640 medium containing 10% FBS (fetal bovine serum), 100 U/ml penicillin and 100 μg/ml streptomycin. All cells were placed in a cell culture incubator at 37° C. with 5% CO2. Cells fluid was changed every 3-5 days, and after 80% cell fusion, trypsin digestion and passaging were performed to keep the cells in good logarithmic growth phase.
(§3) All the samples to be tested were dissolved in DMSO.
(§4) Cells in logarithmic growth phase were inoculated in 96-well plates with 5000 cells/well respectively, and after 24 h of incubation, samples were added (final concentrations as shown in the table), and biplicate wells were set up for each sample. The amount of solvent of DMSO was not higher than 2‰. After 72 h, 10 μL of CCK-8 solution was added to each well and incubated for 1.5˜3 h at 37° C. The OD value at 450 nm was measured on an plate reader.
(§5) Inhibition rate (%)=(1−[(OD450 dosed well−OD450 blank well)/(OD450 control well−OD450 blank well)])×100%
(§6) The fitted IC50 values were calculated using the log (inhibitor) vs. response-Variable slop analysis method in GraphPad Prism software.

[2] = test system: human liver cancer HepG2 cells; conditions: HepG2, 72 h
Source text: as §1, §2, §3, §4, §5, §6

[3] = test system: esophageal cancer Eca-109 cells; conditions: Homo sapiens, Eca-109, 72 h
Source text: as §1, §2, §3, §4, §5, §6

[4] = test system: Human cervical cancer Hela cells; conditions: 72 h
Source text: as §1, §2, §3, §4, §5, §6

[5] = test system: human breast cancer MCF7 cells; conditions: MCF7, 72 h
Source text: as §1, §2, §3, §4, §5, §6

[6] = test system: pancreatic cancer PANC-1 cells; conditions: Homo sapiens, PANC-1, 72 h
Source text: as §1, §2, §3, §4, §5, §6

[7] = test system: human gastric cancer MKN-45 cells; conditions: MKN-45, 72 h
Source text: as §1, §2, §3, §4, §5, §6

[8] = test system: human lung cancer A549 cells; conditions: A549, 72 h
Source text: as §1, §2, §3, §4, §5, §6

## Cc1ccccc1/C=C/C(=O)O[C@@H]1C[C@@H]2[C@H](/C=C/CCC[C@H](C)OC(=O)/C=C/[C@H]2OC(=O)/C=C/c2ccccc2C)C1 [Compound 8c, 4,7-O-bis(2-methylcinnamic acid)acyl BFA]
[1]
  pIC50: 5.00 to 6.00
[2]
  pIC50: 5.00 to 6.00
[3]
  pIC50: 6.00 to 7.00
[4]
  pIC50: 5.00 to 6.00
[5]
  pIC50: 5.00 to 6.00
[6]
  pIC50: 5.00 to 6.00
[7]
  pIC50: 6.00 to 7.00
[8]
  pIC50: 5.00 to 6.00

## C[C@H]1CCC/C=C/[C@@H]2C[C@H](OC(=O)/C=C/c3ccc4c(c3)OCO4)C[C@H]2[C@H](O)/C=C/C(=O)O1 [Compound 9a, 7-O—((E)-3-(benzo[d][1,3]dioxa-5-yl)acrylic acid)acyl BFA]
[1]
  pIC50: 6.00 to 7.00
[2]
  pIC50: 5.00 to 6.00
[3]
  pIC50: 5.00 to 6.00
[4]
  pIC50: 5.00 to 6.00
[5]
  pIC50: 6.00 to 7.00
[6]
  pIC50: 6.00 to 7.00
[7]
  pIC50: 6.00 to 7.00
[8]
  pIC50: 6.00 to 7.00

## C[C@H]1CCC/C=C/[C@@H]2C[C@H](OC(=O)/C=C/c3ccc4c(c3)OCO4)C[C@H]2C(OC(=O)/C=C/c2ccc3c(c2)OCO3)/C=C/C(=O)O1 (stereo partly shown) [Compound 9c, 4,7-O-bis((E)-3-(benzo[d][1,3]dioxa-5-yl)acrylic acid)acyl BFA]
[1]
  pIC50: 6.00 to 7.00
[2]
  pIC50: 5.00 to 6.00
[3]
  pIC50: 5.00 to 6.00
[4]
  pIC50: 5.00 to 6.00
[5]
  pIC50: 5.00 to 6.00
[6]
  pIC50: 5.00 to 6.00
[7]
  pIC50: 6.00 to 7.00
[8]
  pIC50: 5.00 to 6.00

## COc1cc(/C=C/C(=O)O[C@@H]2C[C@H]3[C@H](O)/C=C/C(=O)O[C@@H](C)CCC/C=C/[C@@H]3C2)cc(OC)c1OC [Compound 11a, 7-O-(3,4,5-trimethoxycinnamic acid)acyl BFA]
[1]
  pIC50: 6.00 to 7.00
[2]
  pIC50: 6.00 to 7.00
[3]
  pIC50: 5.00 to 6.00
[4]
  pIC50: 5.00 to 6.00
[5]
  pIC50: 6.00 to 7.00
[6]
  pIC50: 6.00 to 7.00
[7]
  pIC50: 6.00 to 7.00
[8]
  pIC50: 6.00 to 7.00

## COc1cc(/C=C/C(=O)O[C@@H]2/C=C/C(=O)O[C@@H](C)CCC/C=C/[C@@H]3C[C@H](O)C[C@H]32)cc(OC)c1OC [Compound 11b, 4-O-(3,4,5-trimethoxycinnamic acid)acyl BFA]
[1]
  pIC50: 6.00 to 7.00
[2]
  pIC50: 6.00 to 7.00
[3]
  pIC50: 5.00 to 6.00
[4]
  pIC50: 5.00 to 6.00
[5]
  pIC50: 6.00 to 7.00
[6]
  pIC50: 6.00 to 7.00
[7]
  pIC50: 6.00 to 7.00
[8]
  pIC50: 6.00 to 7.00

## COc1cc(/C=C/C(=O)O[C@@H]2C[C@@H]3[C@H](/C=C/CCC[C@H](C)OC(=O)/C=C/[C@H]3OC(=O)/C=C/c3cc(OC)c(OC)c(OC)c3)C2)cc(OC)c1OC [Compound 11c, 4,7-O-bis(3,4,5-trimethoxycinnamic acid)acyl BFA]
[1]
  pIC50: 6.00 to 7.00
[2]
  pIC50: 5.00 to 6.00
[3]
  pIC50: 5.00 to 6.00
[4]
  pIC50: 5.00 to 6.00
[5]
  pIC50: 5.00 to 6.00
[6]
  pIC50: 5.00 to 6.00
[7]
  pIC50: 5.00 to 6.00
[8]
  pIC50: 6.00 to 7.00

## C[C@H]1CCC/C=C/[C@@H]2C[C@H](OC(=O)/C=C/c3ccc(C(F)(F)F)cc3)C[C@H]2[C@H](O)/C=C/C(=O)O1 [Compound 13a, 7-O-(4-trifluoromethylcinnamic acid)acyl BFA]
[1]
  pIC50: 6.00 to 7.00
[2]
  pIC50: 6.00 to 7.00
[3]
  pIC50: 6.00 to 7.00
[4]
  pIC50: 6.00 to 7.00
[5]
  pIC50: 6.00 to 7.00
[6]
  pIC50: 6.00 to 7.00
[7]
  pIC50: 6.00 to 7.00
[8]
  pIC50: 6.00 to 7.00

## C[C@H]1CCC/C=C/[C@@H]2C[C@H](O)C[C@H]2[C@H](OC(=O)/C=C/c2ccc(C(F)(F)F)cc2)/C=C/C(=O)O1 [Compound 13b, 4-O-(4-trifluoromethylcinnamic acid)acyl BFA]
[1]
  pIC50: 6.00 to 7.00
[2]
  pIC50: 6.00 to 7.00
[3]
  pIC50: 6.00 to 7.00
[4]
  pIC50: 6.00 to 7.00
[5]
  pIC50: 6.00 to 7.00
[6]
  pIC50: 6.00 to 7.00
[7]
  pIC50: 6.00 to 7.00
[8]
  pIC50: 6.00 to 7.00

## C[C@H]1CCC/C=C/[C@@H]2C[C@H](OC(=O)/C=C/c3ccc(C(F)(F)F)cc3)C[C@H]2[C@H](OC(=O)/C=C/c2ccc(C(F)(F)F)cc2)/C=C/C(=O)O1 [Compound 13c, 4,7-O-bis(4-trifluoromethylcinnamic acid)acyl BFA]
[1]
  pIC50: 6.00 to 7.00
[2]
  pIC50: 5.00 to 6.00
[3]
  pIC50: 5.00 to 6.00
[4]
  pIC50: 5.00 to 6.00
[5]
  pIC50: 5.00 to 6.00
[6]
  pIC50: 5.00 to 6.00
[7]
  pIC50: 5.00 to 6.00
[8]
  pIC50: 6.00 to 7.00

## C[C@H]1CCC/C=C/[C@@H]2C[C@H](OC(=O)/C=C/c3ccncc3)C[C@H]2[C@H](O)/C=C/C(=O)O1 [Compound 14a, 7-O-(3-(pyridine-4-yl)acrylic acid)acyl BFA]
[1]
  pIC50: 6.00 to 7.00
[2]
  pIC50: > 7.00
[3]
  pIC50: 5.00 to 6.00
[4]
  pIC50: 6.00 to 7.00
[5]
  pIC50: 6.00 to 7.00
[6]
  pIC50: > 7.00
[7]
  pIC50: 6.00 to 7.00
[8]
  pIC50: 6.00 to 7.00

## C[C@H]1CCC/C=C/[C@@H]2C[C@H](O)C[C@H]2[C@H](OC(=O)/C=C/c2ccncc2)/C=C/C(=O)O1 [Compound 14b]
[1]
  pIC50: 6.00 to 7.00
[2]
  pIC50: > 7.00
[3]
  pIC50: 5.00 to 6.00
[4]
  pIC50: 6.00 to 7.00
[5]
  pIC50: 6.00 to 7.00
[6]
  pIC50: > 7.00
[7]
  pIC50: 6.00 to 7.00
[8]
  pIC50: 6.00 to 7.00

## C[C@H]1CCC/C=C/[C@@H]2C[C@H](OC(=O)/C=C/c3ccncc3)C[C@H]2[C@H](OC(=O)/C=C/c2ccncc2)/C=C/C(=O)O1 [Compound 14c]
[1]
  pIC50: 6.00 to 7.00
[2]
  pIC50: 6.00 to 7.00
[3]
  pIC50: 5.00 to 6.00
[4]
  pIC50: 5.00 to 6.00
[5]
  pIC50: 5.00 to 6.00
[6]
  pIC50: 5.00 to 6.00
[7]
  pIC50: 6.00 to 7.00
[8]
  pIC50: 6.00 to 7.00

## C[C@H]1CCC/C=C/[C@@H]2C[C@H](OC(=O)/C=C/c3ccccn3)C[C@H]2[C@H](O)/C=C/C(=O)O1 [Compound 15a, 7-O-(3-(pyridine-2-yl)acrylic acid)acyl BFA]
[1]
  pIC50: 6.00 to 7.00
[2]
  pIC50: > 7.00
[3]
  pIC50: 5.00 to 6.00
[4]
  pIC50: 6.00 to 7.00
[5]
  pIC50: 6.00 to 7.00
[6]
  pIC50: > 7.00
[7]
  pIC50: 6.00 to 7.00
[8]
  pIC50: 6.00 to 7.00

## C[C@H]1CCC/C=C/[C@@H]2C[C@H](O)C[C@H]2[C@H](OC(=O)/C=C/c2ccccn2)/C=C/C(=O)O1 [Compound 15b]
[1]
  pIC50: 6.00 to 7.00
[2]
  pIC50: > 7.00
[3]
  pIC50: 6.00 to 7.00
[4]
  pIC50: 6.00 to 7.00
[5]
  pIC50: 6.00 to 7.00
[6]
  pIC50: > 7.00
[7]
  pIC50: 6.00 to 7.00
[8]
  pIC50: 6.00 to 7.00

## C[C@H]1CCC/C=C/[C@@H]2C[C@H](OC(=O)/C=C/c3ccccn3)C[C@H]2[C@H](OC(=O)/C=C/c2ccccn2)/C=C/C(=O)O1 [Compound 15c]
[1]
  pIC50: 6.00 to 7.00
[2]
  pIC50: 6.00 to 7.00
[3]
  pIC50: 5.00 to 6.00
[4]
  pIC50: 5.00 to 6.00
[5]
  pIC50: 6.00 to 7.00
[6]
  pIC50: 6.00 to 7.00
[7]
  pIC50: 5.00 to 6.00
[8]
  pIC50: 6.00 to 7.00

## C[C@H]1CCC/C=C/[C@@H]2C[C@H](OC(=O)/C=C/c3cnc4ccccc4c3)C[C@H]2[C@H](O)/C=C/C(=O)O1 [Compound 17a, 7-O-(3-(quinoline-3-yl)acrylic acid)acyl BFA]
[1]
  pIC50: 6.00 to 7.00
[2]
  pIC50: > 7.00
[3]
  pIC50: 6.00 to 7.00
[4]
  pIC50: 6.00 to 7.00
[5]
  pIC50: 6.00 to 7.00
[6]
  pIC50: > 7.00
[7]
  pIC50: 6.00 to 7.00
[8]
  pIC50: 6.00 to 7.00

## C[C@H]1CCC/C=C/[C@@H]2C[C@H](O)C[C@H]2[C@H](OC(=O)/C=C/c2cnc3ccccc3c2)/C=C/C(=O)O1 [Compound 17b]
[1]
  pIC50: 6.00 to 7.00
[2]
  pIC50: > 7.00
[3]
  pIC50: 6.00 to 7.00
[4]
  pIC50: 6.00 to 7.00
[5]
  pIC50: 6.00 to 7.00
[6]
  pIC50: > 7.00
[7]
  pIC50: 6.00 to 7.00
[8]
  pIC50: 6.00 to 7.00
